Measurements taken from patent US20260345621A1, “GABAA RECEPTOR MODULATORS AND USES THEREOF” (Engrail Therapeutics, Inc., priority 2022, published 2026).
“Also recorded” adds a separate entry of the source.

Columns and labels:
[1] = test system: anxiety (elevated plus maze); experiment: Elevated plus maze (EPM); settings: oral
EEG spectral bands = experiment: Pharmaco-EEG spectral analysis in wirelessly implanted rats
sleep stages = experiment: Sleep-stage analysis in wirelessly implanted rats; settings: Lorazepam 1 mg/kg IP
[2] = phase II trial terminated; long term dosing studies; cited from earlier work
[3] = Frontal-Parietal cortex, Quiet Wake

For chlordiazepoxide [reference compound], which “effect compared with reference anxiolytic chlordiazepoxide” value [1] is on record?
The value was “equivalent”.

With `O=C1Nc2ccc(Cl)cc2C(c2ccccc2Cl)=NC1O` (centres unmarked) [Lorazepam, reference compound] as the molecule, how does the “EEG spectral power change” value (EEG spectral bands; Frontal-Frontal cortex, Active and Quiet Wake) read?
Its value is “increased beta, low and high gamma”.

And the “EEG spectral power change” value (EEG spectral bands; Frontal-Frontal cortex, NREM)?
Its value is “decreased theta, alpha, and beta, but increased low gamma”.

And the “duration of EEG effects” value (EEG spectral bands; Frontal-Frontal cortex, NREM, Compound 1 high dose PO, Lorazepam 1 mg/kg IP)?
The value was 9 h.

And the “EEG spectral power change” value (EEG spectral bands; Frontal-Frontal cortex, REM)?
Its value is “increased beta”.

And the “duration of increase in low and high gamma” value (EEG spectral bands; Frontal-Parietal cortex, NREM)?
The value was “only lasting to two hours post dose”.

And the “EEG spectral power change” value (EEG spectral bands; [3])?
Its value is “decreased theta, increased beta and low and high gamma”.

What about the “duration of EEG effects” value (EEG spectral bands; [3]) of the same molecule?
Its value is “did not last past four hours post dose”.

What about the “EEG spectral power change” value (EEG spectral bands; Frontal-Parietal cortex, REM) of the same molecule?
The value was “increased theta, alpha, beta, and low gamma”.

What about the “EEG spectral power change” value (EEG spectral bands; summary, Quiet Wake) of the same molecule?
Its value is “increased low & high gamma, decreased delta”.

And the NREM onset (sleep stages; Compound 1 1 mg/kg PO)?
Its NREM onset is “decreased the latency to NREM onset; also recorded: quicker time to Non-REM onset sleep than Compound 1”.

What about the “Active Wake” value (sleep stages; Compound 1 PO) of the same molecule?
The value was “decreased Active Wake”.

And the NREM (sleep stages; Compound 1 PO)?
Its NREM is “increased NREM”.

With `CCn1ncnc1COc1nn2c(-c3ccccc3F)nnc2cc1C(C)(C)C` [7-(1,1-dimethylethyl)-6-(2-ethyl-2H-1,2,4-triazol-3-ylmethoxy)-3-(2-fluorophenyl)-1,2,4-triazolo[4,3-b]pyridazine] as the molecule, how does the toxicity [2] read?
Its toxicity is “terminated due to toxicity in long term dosing studies”.
